The values below come from US12319655B2, “RAF kinase inhibitors and methods of use thereof” (Deciphera Pharmaceuticals, LLC, priority 2021, dated 2025).

For orientation: IC50 means the point on the concentration scale where inhibition reaches its midpoint.

In one assay the test system is A375 cells. Put plainly: A375 Cell Proliferation Assay (1). In kind it is cell-based. The settings on record: Homo sapiens, A-375. In short, it runs like this: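 Resazurin fluorescence (excitation 540 nm, emission 600 nm, after a further 5-6 h) gave IC50s from triplicate compound dilution series.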
The target in assay [1] is A-Raf kinase (SEQ. ID No: 1) (Homo sapiens (Human), UniProt P10398, Y301D/Y302D). Put plainly: Biochemical Assay for A-Raf (1). The following applies: Table J, assay version (1); read-out: ARAF (1) IC50. In short, it runs like this:
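IC50 values were derived by four-parameter sigmoidal fitting of percent inhibition, calculated from reaction rates over the 4–5 h window. Absorbance at 340 nm was tracked for 6 h at 30 °C via coupled PK/LDH NADH depletion. Conditions: 1 mM ATP, 30.1 nM MEK substrate, 5.55 nM A-Raf (Y301D/Y302D), Tris pH 7.5, 1% DMSO.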

For the next assay, the system named is WM3928 cells. The assay can be described thus: WM3928 Cell Proliferation Assay (1). The assay is classed as cell-based. Summed up:
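IC50 was derived from resazurin fluorescence (ex 540, em 600 nm) after a 6–7 h dye incubation. Before that, cells had 67–72 h of compound exposure at 37 °C, 5% CO2.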

Assay [2] concerns the target B-Raf (V600E) (SEQ. ID NO: 4) kinase (Homo sapiens (Human), UniProt P15056, V600E). The assay can be described thus: Biochemical Assay for B-Raf (V600E) (1). The following applies: Table J, BRAF V600E, assay version (1); read-out: BRAF VE (1) IC50. Summed up:
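Serially diluted compounds tested against 0.03 nM enzyme with 30.1 nM MEK substrate and 1 mM ATP (Tris pH 7.5, 15 mM MgCl2), ATP use coupled to NADH loss via PK/LDH. A340 monitored continuously 6 h, 30 °C; IC50 fitted (four-parameter) from the 3–4 h rate versus no-compound and known-inhibitor controls.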

Sequence of B-Raf (V600E) (SEQ. ID NO: 4) kinase (P15056 416-766 V600E): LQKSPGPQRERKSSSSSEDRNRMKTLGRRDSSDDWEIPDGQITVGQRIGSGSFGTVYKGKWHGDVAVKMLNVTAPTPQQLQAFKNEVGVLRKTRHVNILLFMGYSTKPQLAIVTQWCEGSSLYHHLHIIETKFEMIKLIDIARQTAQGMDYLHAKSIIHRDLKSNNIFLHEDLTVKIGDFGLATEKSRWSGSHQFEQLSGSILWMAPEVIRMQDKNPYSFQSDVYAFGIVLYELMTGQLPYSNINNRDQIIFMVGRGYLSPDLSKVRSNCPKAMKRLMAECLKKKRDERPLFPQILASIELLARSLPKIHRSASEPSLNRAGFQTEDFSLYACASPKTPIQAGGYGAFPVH
Sequence of A-Raf kinase (SEQ. ID No: 1) (P10398 other isoform, or with tags, fused parts or gaps Y301D (already in the parent)/Y302D (already in the parent)): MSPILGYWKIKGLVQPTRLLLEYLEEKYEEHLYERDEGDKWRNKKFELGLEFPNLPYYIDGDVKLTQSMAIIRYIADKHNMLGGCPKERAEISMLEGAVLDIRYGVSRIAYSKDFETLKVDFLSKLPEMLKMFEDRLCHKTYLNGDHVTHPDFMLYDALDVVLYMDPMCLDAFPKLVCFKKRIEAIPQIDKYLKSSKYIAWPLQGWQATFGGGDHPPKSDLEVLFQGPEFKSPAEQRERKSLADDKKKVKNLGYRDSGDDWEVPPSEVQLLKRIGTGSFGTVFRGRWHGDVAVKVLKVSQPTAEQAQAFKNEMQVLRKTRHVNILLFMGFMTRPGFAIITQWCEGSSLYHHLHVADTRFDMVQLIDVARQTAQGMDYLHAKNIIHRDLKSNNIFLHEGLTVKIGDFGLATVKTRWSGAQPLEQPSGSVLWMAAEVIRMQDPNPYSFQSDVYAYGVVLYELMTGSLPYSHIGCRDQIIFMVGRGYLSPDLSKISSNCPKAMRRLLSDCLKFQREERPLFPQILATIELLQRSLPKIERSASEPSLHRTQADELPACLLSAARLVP

In the case of `CNC(=O)c1cc(-c2cc(-c3cc(NC(=O)c4ccnc(C(C)(C)F)c4)ccc3C)cnc2C)ccn1` [Example 371], the IC50 in the assay with A375 cells is 100 to 500 nM; in assay [1], 1000 to 10000 nM; in the assay with WM3928 cells, 100 to 500 nM; in assay [2], not above 100 nM.

In the case of `CNC(=O)c1cc(-c2cnnc(-c3cc(NC(=O)c4ccc(F)c(C(F)(F)F)c4)ccc3C)c2)ccn1` [Example 329], the 50% inhibitory concentration (IC50) in the assay on A375 cells is 500 to 1000 nM; in assay [1] it was 1000 to 10000 nM; in the assay on WM3928 cells it was 1000 to 10000 nM; in assay [2], not above 100 nM.

`CNC(=O)c1cc(-c2cnnc(-c3cc(NC(=O)c4ccnc(C(C)(C)F)c4)ccc3C)c2)ccn1` [Example 325]: the 50% inhibitory concentration (IC50) in the assay on A375 cells was 100 to 500 nM; in assay [1], 1000 to 10000 nM; in the assay on WM3928 cells, 500 to 1000 nM; in assay [2], not above 100 nM.

Consider `CNC(=O)c1cc(-c2nccc(-c3cc(NC(=O)c4ccnc(C(F)(F)F)c4)ccc3C)n2)ccn1` [Example 25], for which the half-inhibitory concentration (IC50) with A375 cells was 500 to 1000 nM; in assay [1], 1000 to 10000 nM; in the assay with WM3928 cells it was 500 to 1000 nM; in assay [2], not above 100 nM.

Take `Cc1ccc(NC(=O)c2cnnc(C3CC3)c2)cc1-c1cccc(-c2cc(NC(=O)C3CC3)ncn2)c1` [Example 284]: the concentration for half-maximal inhibition (IC50) with A375 cells is not above 100 nM; in assay [1] it was 500 to 1000 nM; in the assay with WM3928 cells, not above 100 nM; in assay [2], not above 100 nM.

On to `COC(=O)Nc1cc(-c2cccc(-c3cc(NC(=O)c4ccnc(C5CC5)c4)cnc3C)c2)ccn1` [Example 288], for which the IC50 with A375 cells was 1000 to 10000 nM; in assay [1] it was 1000 to 10000 nM; with WM3928 cells it was 1000 to 10000 nM; in assay [2] it was not above 100 nM.

Regarding `COC(=O)Nc1cc(-c2cnnc(-c3cc(NC(=O)c4ccnc(C(C)(C)C#N)c4)ccc3C)c2)ccn1` [Example 305], the concentration for half-maximal inhibition (IC50) is 100 to 500 nM with A375 cells, 1000 to 10000 nM in assay [1], 100 to 500 nM in the assay with WM3928 cells and not above 100 nM in assay [2].

For the compound `COC(=O)Nc1nccc(-c2cccc(-c3cc(NC(=O)c4ccnc(C(C)(C)C#N)c4)cnc3C)c2)n1` [Example 290], the IC50 in the assay with A375 cells was 1000 to 10000 nM; in assay [1], 1000 to 10000 nM; with WM3928 cells, 500 to 1000 nM; in assay [2], not above 100 nM.

For the compound `CNC(=O)c1cc(-c2cc(-c3cc(NC(=O)c4ccnc(C(F)(F)F)c4)ccc3C)cc(C3CC3)n2)ccn1` [Example 27], the IC50 was not above 100 nM with A375 cells, 1000 to 10000 nM in assay [1], not above 100 nM in the assay with WM3928 cells and not above 100 nM in assay [2].

As for `COC(=O)Nc1cc(-c2cc(-c3cc(NC(=O)c4ccnc(C(C)(C)C#N)c4)cnc3C)ccn2)ccn1` [Example 297], the IC50 in the assay on A375 cells is not above 100 nM; in assay [1] it was 1000 to 10000 nM; in the assay on WM3928 cells, not above 100 nM; in assay [2] it was not above 100 nM.

For the compound `Cc1ncc(NC(=O)C2CCOC(C)(C)C2)cc1-c1cccc(-c2cc(NC(=O)C3CC3)ncn2)c1` (stereo not drawn) [Example 348], the half-maximal inhibitory concentration (IC50) with A375 cells is 1000 to 10000 nM; in assay [1], 1000 to 10000 nM; with WM3928 cells it was 1000 to 10000 nM; in assay [2] it was not above 100 nM.

`Cc1ccc(NC(=O)c2ccnc(C(C)(C)F)c2)cc1-c1cc(-c2ccnc(NC(=O)C3CC3)c2)cnn1` [Example 315]: the concentration for half-maximal inhibition (IC50) is not above 100 nM in the assay on A375 cells, 500 to 1000 nM in assay [1], not above 100 nM with WM3928 cells and not above 100 nM in assay [2].

As for `CC(=O)Nc1cc(-c2cccc(-c3cc(NC(=O)c4ccnc(C(F)(F)F)c4)ccc3C)c2)ncn1` [Example 30], the IC50 is not above 100 nM with A375 cells, 500 to 1000 nM in assay [1], not above 100 nM in the assay with WM3928 cells and not above 100 nM in assay [2].

For `Cc1ccc(NC(=O)c2cnn(C(C)(C)C)c2)cc1-c1cc(-c2ccnc(NC(=O)C3CC3)c2)cnn1` [Example 321], the IC50 in the assay with A375 cells is 100 to 500 nM; in assay [1], 1000 to 10000 nM; in the assay with WM3928 cells, 100 to 500 nM; in assay [2], not above 100 nM.

For `CNC(=O)c1cc(-c2cnnc(-c3cc(NC(=O)c4ccnc(C(C)(C)C#N)c4)ccc3C)c2)ccn1` [Example 314], the half-inhibitory concentration (IC50) with A375 cells was 100 to 500 nM; in assay [1], 1000 to 10000 nM; in the assay with WM3928 cells, 500 to 1000 nM; in assay [2] it was not above 100 nM.

For `Cc1ncc(NC(=O)c2ccnc(C3CC3)c2)cc1-c1nccc(-c2ccnc(NC(=O)C3CC3)c2)n1` [Example 295], the IC50 in the assay on A375 cells is 500 to 1000 nM; in assay [1], 1000 to 10000 nM; in the assay with WM3928 cells it was 100 to 500 nM; in assay [2] it was not above 100 nM.

Take `COC(=O)Nc1cc(-c2cnnc(-c3cc(NC(=O)COCC4CC4)ccc3C)c2)ccn1` [Example 360]: the half-inhibitory concentration (IC50) (in the assay on A375 cells; in assay [1]; in the assay on WM3928 cells; in assay [2]) was 1000 to 10000 nM throughout.

On to `Cc1ccc(NC(=O)c2ccnc(C(C)(C)C#N)c2)cc1-c1ccnc(-c2ccnc3c2CC(=O)N3)c1` [Example 23], for which the IC50 with A375 cells was not above 100 nM; in assay [1] it was 1000 to 10000 nM; in the assay on WM3928 cells it was not above 100 nM; in assay [2], not above 100 nM.

For the compound `CNC(=O)c1cc(-c2cnnc(-c3cc(NC(=O)c4ccnc(C(F)F)c4)ccc3C)c2)ccn1` [Example 327], the IC50 in the assay with A375 cells lay in the range of 1000 to 10000 nM; in assay [1], 1000 to 10000 nM; with WM3928 cells it was 1000 to 10000 nM; in assay [2] it was 500 to 1000 nM.

On to `Cc1cc(F)c(NC(=O)c2ccnc(C(C)(C)C#N)c2)cc1-c1cc(-c2ccnc(NC(=O)C3CC3)c2)cnn1` [Example 298], for which the IC50 is 100 to 500 nM with A375 cells, 1000 to 10000 nM in assay [1], 100 to 500 nM with WM3928 cells and not above 100 nM in assay [2].

Regarding `COC(=O)Nc1cc(-c2cc(-c3cc(NC(=O)c4ccnc(C(C)(C)C#N)c4)c(F)cc3C)ccn2)ccn1` [Example 308], the 50% inhibitory concentration (IC50) was not above 100 nM in the assay on A375 cells, 1000 to 10000 nM in assay [1], not above 100 nM in the assay on WM3928 cells and not above 100 nM in assay [2].

For `Cc1cc(F)c(NC(=O)c2ccnc(C(F)F)c2)cc1-c1ccnc(-c2ccnc(NC(=O)C3CC3)c2)c1` [Example 307], the IC50 with A375 cells is 500 to 1000 nM; in assay [1] it was 500 to 1000 nM; in the assay on WM3928 cells, 100 to 500 nM; in assay [2], not above 100 nM.

Consider `COC(=O)Nc1cc(-c2cccc(-c3cc(NC(=O)c4ccnc(C(C)(C)C#N)c4)cnc3C)c2)ccn1` [Example 282], for which the IC50 in the assay with A375 cells is not above 100 nM; in assay [1], 1000 to 10000 nM; with WM3928 cells it was 100 to 500 nM; in assay [2], not above 100 nM.

For the compound `Cc1ccc(NC(=O)c2ccnc(S(C)(=O)=O)c2)cc1-c1cc(-c2ccnc(NC(=O)C3CC3)c2)cnn1` [Example 332], the IC50 with A375 cells was 1000 to 10000 nM; in assay [1] it was 1000 to 10000 nM; with WM3928 cells, 1000 to 10000 nM; in assay [2], not above 100 nM.

With `Cc1ncc(NC(=O)c2ccnc(C(C)(C)C#N)c2)cc1-c1cccc(-c2ccnc(C(N)=O)c2)c1` [Example 301], the IC50 in the assay with A375 cells was 100 to 500 nM; in assay [1], 1000 to 10000 nM; with WM3928 cells, 100 to 500 nM; in assay [2] it was not above 100 nM.

Consider `CNC(=O)c1cc(-c2cnnc(-c3cc(NC(=O)c4ccnc(C(C)(C)OC)c4)ccc3C)c2)ccn1` [Example 328], for which the 50% inhibitory concentration (IC50) is 100 to 500 nM in the assay with A375 cells, 1000 to 10000 nM in assay [1], 1000 to 10000 nM with WM3928 cells and not above 100 nM in assay [2].

For the compound `COC(=O)Nc1cc(-c2nccc(-c3cc(NC(=O)c4ccnc(C(C)(C)F)c4)c(F)cc3C)n2)ccn1` [Example 304], the IC50 with A375 cells was 100 to 500 nM; in assay [1], 1000 to 10000 nM; in the assay on WM3928 cells, not above 100 nM; in assay [2], not above 100 nM.

Regarding `CNC(=O)c1cc(-c2cnnc(-c3cc(NC(=O)c4ccnc(C(F)(F)F)c4)ccc3C)c2)ccn1` [Example 364], the IC50 lay within 1000 to 10000 nM in the assay on A375 cells, 1000 to 10000 nM in assay [1], 1000 to 10000 nM with WM3928 cells and 100 to 500 nM in assay [2].

For the compound `COC(=O)Nc1cc(-c2cc(-c3cc(NC(=O)c4ccnc(C(F)F)c4)cnc3C)ccn2)ccn1` [Example 313], the IC50 (in the assay on A375 cells; in assay [1]; in the assay with WM3928 cells; in assay [2]) was 1000 to 10000 nM throughout.

On to `CNC(=O)c1cc(-c2cnnc(-c3cc(NC(=O)c4ccnc(C5CC5)c4)ccc3C)c2)ccn1` [Example 326], for which the IC50 lay in the range of 1000 to 10000 nM with A375 cells, 1000 to 10000 nM in assay [1], 1000 to 10000 nM with WM3928 cells and 100 to 500 nM in assay [2].

Turning to `Cc1ccc(NC(=O)c2ccnc(C(C)(C)C#N)c2)cc1-c1nccc(-c2ccnc3c2CC(=O)N3)n1` [Example 22], the half-inhibitory concentration (IC50) in the assay on A375 cells is 1000 to 10000 nM; in assay [1], 1000 to 10000 nM; with WM3928 cells, not above 100 nM; in assay [2] it was not above 100 nM.

As for `Cc1ncc(NC(=O)c2ccnc(C3CC3)c2)cc1-c1cccc(-c2cc(NC(=O)C3CC3)ncn2)c1` [Example 291], the half-maximal inhibitory concentration (IC50) is 100 to 500 nM with A375 cells, 1000 to 10000 nM in assay [1], not above 100 nM with WM3928 cells and not above 100 nM in assay [2].

Consider `Cc1ncc(NC(=O)c2cnn(C(C)(C)C)c2)cc1-c1ccnc(-c2ccnc(NC(=O)C3CC3)c2)n1` [Example 283], for which the concentration for half-maximal inhibition (IC50) with A375 cells was 100 to 500 nM; in assay [1], 1000 to 10000 nM; in the assay on WM3928 cells, 100 to 500 nM; in assay [2], not above 100 nM.
